Common to all, as to assay type: cell-based
The subject of assay [1] is Ent. aerogenes IFO 12979. The assay can be described thus: MIC by agar dilution, Ent. aerogenes IFO 12979. As to conditions: Klebsiella aerogenes, IFO12979, 17 h, Mueller-Hinton agar, read-out: Minimal Inhibitory Concentration (MIC). The protocol:
(§1) These MIC values were determined by agar dilution method: that is, two-fold dilutions of each of the test compounds were made and dispersed in a Mueller-Hinton agar medium; standard test strain which had the 10^6 CFU (Colony Forming Unit) per ml was inoculated on the medium with microplanter (Toyo, Japan), and incubated at 35°-37° C. for 17±1 hours. The structures of Ceftazidime (CAZ) and Cefotaxime (CTX) which are used as control compounds are as follows: [drawing 12]
Background: Agar dilution tests growth on a series of plates holding different concentrations.

Assay [2] relates to Ps. aeruginosa ATCC 10145. The assay can be described thus: MIC by agar dilution, Ps. aeruginosa ATCC 10145. The following applies: Pseudomonas aeruginosa, ATCC10145, 17 h, Mueller-Hinton agar, read-out: Minimal Inhibitory Concentration (MIC). As to the method:
as §1

The subject of assay [3] is Ent. cloacae IFO 13535. Briefly: MIC by agar dilution, Ent. cloacae IFO 13535. As to conditions: Enterobacter cloacae, IFO13535, 17 h; Ent. cloacae IFO 13535; agar dilution, Mueller-Hinton agar; read-out: Minimal Inhibitory Concentration (MIC). The protocol: as §1
Assay [4] deals with E. coli No. 29. The assay can be described thus: MIC by agar dilution, E. coli No. 29. The following applies: Escherichia coli, 17 h; E. coli No. 29; agar dilution, Mueller-Hinton agar; read-out: Minimal Inhibitory Concentration (MIC). As to the method:
as §1

For assay [5], the system named is Staph. aureus C-57. The assay can be described thus: MIC by agar dilution, Staph. aureus C-57. As to conditions: Staphylococcus aureus, C57, 17 h, Mueller-Hinton agar, read-out: Minimal Inhibitory Concentration (MIC). As to the method: as §1
In assay [6] the test system is Ps. aeruginosa DY-2. Briefly: MIC by agar dilution, Ps. aeruginosa DY-2. As to conditions: Pseudomonas aeruginosa, DY2, 17 h; Ps. aeruginosa DY-2; agar dilution, Mueller-Hinton agar; read-out: Minimal Inhibitory Concentration (MIC). The protocol: as §1
Assay [7] deals with P. vulgaris NCTC 8313. Briefly: MIC by agar dilution, P. vulgaris NCTC 8313. The following applies: Proteus vulgaris, NCTC8313, 17 h; P. vulgaris NCTC 8313; agar dilution, Mueller-Hinton agar; read-out: Minimal Inhibitory Concentration (MIC). The protocol: as §1
For assay [8], the system named is S. epidermidis ATCC 12228. Briefly: MIC by agar dilution, S. epidermidis ATCC 12228. The following applies: Staphylococcus epidermidis, ATCC12228, 17 h; S. epidermidis ATCC 12228; agar dilution, Mueller-Hinton agar; read-out: Minimal Inhibitory Concentration (MIC). The protocol:
as §1

Assay [9] deals with Ps. aeruginosa NCTC 10490. Briefly: MIC by agar dilution, Ps. aeruginosa NCTC 10490. The following applies: Pseudomonas aeruginosa, NCTC10490, 17 h, Mueller-Hinton agar, read-out: Minimal Inhibitory Concentration (MIC). The protocol: as §1
The test system of assay [10] is Staph. aureus ATCC 6538P. Briefly: MIC by agar dilution, Staph. aureus ATCC 6538P. The following applies: Staphylococcus aureus, ATCC6538P, 17 h; Staph. aureus ATCC 6538P; agar dilution, Mueller-Hinton agar; read-out: Minimal Inhibitory Concentration (MIC). The protocol:
as §1

The test system of assay [11] is M. morganii DY-1. Briefly: MIC by agar dilution, M. morganii DY-1. The following applies: Morganella morganii, DY1, 17 h; M. morganii DY-1; agar dilution, Mueller-Hinton agar; read-out: Minimal Inhibitory Concentration (MIC). The protocol:
as §1

The test system of assay [12] is Ser. marcescens IFO 12648. The assay can be described thus: MIC by agar dilution, Ser. marcescens IFO 12648. The following applies: Serratia marcescens, IFO12648, 17 h; Ser. marcescens IFO 12648; agar dilution, Mueller-Hinton agar; read-out: Minimal Inhibitory Concentration (MIC). The protocol:
as §1

The test system of assay [13] is K. pneumoniae NCTC 9632. The assay can be described thus: MIC by agar dilution, K. pneumoniae NCTC 9632. The following applies: Klebsiella pneumoniae, NCTC9632, 17 h; K. pneumoniae NCTC 9632; agar dilution, Mueller-Hinton agar; read-out: Minimal Inhibitory Concentration (MIC). As to the method: as §1
The test system of assay [14] is E. coli NIHJ JC-2. The assay can be described thus: MIC by agar dilution, E. coli NIHJ JC-2. The following applies: Escherichia coli, NIHJJC2, 17 h; E. coli NIHJ JC-2; agar dilution, Mueller-Hinton agar; read-out: Minimal Inhibitory Concentration (MIC). The protocol:
as §1

The subject of assay [15] is Staph. aureus Smith. Briefly: MIC by agar dilution, Staph. aureus Smith. The following applies: Staphylococcus aureus, 17 h, Mueller-Hinton agar, read-out: Minimal Inhibitory Concentration (MIC). As to the method: as §1
Assay [16] relates to Staph. aureus C-5113. Briefly: MIC by agar dilution, Staph. aureus C-5113. The following applies: Staphylococcus aureus, C5113, 17 h, Mueller-Hinton agar, read-out: Minimal Inhibitory Concentration (MIC). As to the method:
as §1

Assay [17] deals with Staph. aureus C-5216. The assay can be described thus: MIC by agar dilution, Staph. aureus C-5216. The following applies: Staphylococcus aureus, C5216, 17 h, Mueller-Hinton agar, read-out: Minimal Inhibitory Concentration (MIC). As to the method: as §1
Assay [18] has as its system E. coli DY-1. Briefly: MIC by agar dilution, E. coli DY-1. As to conditions: Escherichia coli, DY1, 17 h; E. coli DY-1; agar dilution, Mueller-Hinton agar; read-out: Minimal Inhibitory Concentration (MIC). As to the method: as §1
Assay [19] deals with B. subtilis ATCC 6633. The assay can be described thus: MIC by agar dilution, B. subtilis ATCC 6633. As to conditions: Bacillus subtilis, ATCC6633, 17 h; B. subtilis ATCC 6633; agar dilution, Mueller-Hinton agar; read-out: Minimal Inhibitory Concentration (MIC). The protocol:
as §1

The subject of assay [20] is Prov. stuartii IFO 12930. Briefly: MIC by agar dilution, Prov. stuartii IFO 12930. The following applies: Providencia stuartii, IFO12930, 17 h, Mueller-Hinton agar, read-out: Minimal Inhibitory Concentration (MIC). The protocol: as §1

Here are results for three molecules from US5593984A, “Cephalosporin derivatives” (Yuhan Corporation, priority 1992, dated 1997).

Molecules are shown by their SMILES. Values after ≈ are worked out from the molar mass of the structure shown.

`CCc1c[n+](CC2=C(C(=O)[O-])N3C(=O)[C@@H](NC(=O)/C(=N\OC)c4csc(N)n4)[C@H]3SC2)cc2cccn12` [Ex. 37, 7-β-[(Z)-2-(2-aminothiazol-4-yl)-2-methoxyiminoacetamido]-3-(4-ethylpyrrolo[1,2-a]pyrazinium-2-yl)methyl-3-cephem-4-carboxylate]: the MIC in [1] is 0.012 µg/mL (≈ 0.0222 µM); in [2] it was 3.13 µg/mL (≈ 5.78 µM); in assay [3] it was 0.2 µg/mL (≈ 0.369 µM); in [4] it was at most 0.006 µg/mL; in assay [5], 25 µg/mL (≈ 46.2 µM); in [6], 6.25 µg/mL (≈ 11.5 µM). Also, the MIC in [7] was 0.012 µg/mL (≈ 0.0222 µM); in assay [8] it was 0.2 µg/mL (≈ 0.369 µM); in [9], 0.78 µg/mL (≈ 1.44 µM); in [10] it was 0.1 µg/mL (≈ 0.185 µM); in assay [11], 0.025 µg/mL (≈ 0.0462 µM); in [12], 0.012 µg/mL (≈ 0.0222 µM). Moreover, the MIC is 0.012 µg/mL (≈ 0.0222 µM) in [13]; 0.012 µg/mL (≈ 0.0222 µM) in assay [14]; 0.2 µg/mL (≈ 0.369 µM) in [15]; 1.56 µg/mL (≈ 2.88 µM) in assay [16]; 0.78 µg/mL (≈ 1.44 µM) in [17]; at most 0.006 µg/mL in [18]. The results for the MIC in [19] and in assay [20] were 0.2 µg/mL (≈ 0.369 µM) and 0.012 µg/mL (≈ 0.0222 µM), respectively.
Take `CCO/N=C(\C(=O)N[C@@H]1C(=O)N2C(C(=O)[O-])=C(C[n+]3cc(CC)n4cccc4c3)CS[C@H]12)c1csc(N)n1` [Ex. 38, 7-β-[(Z)-2-(2-aminothiazol-4-yl)-2-ethoxyiminoacetamido]-3-(4-ethylpyrrolo[1,2-a]pyrazinium-2-yl)methyl-3-cephem-4-carboxylate]: the MIC in [1] is 0.025 µg/mL (≈ 0.045 µM); in assay [2], 3.13 µg/mL (≈ 5.63 µM); in [3], 0.2 µg/mL (≈ 0.36 µM); in assay [4], at most 0.006 µg/mL; in [5], 12.5 µg/mL (≈ 22.5 µM); in [6] it was 3.13 µg/mL (≈ 5.63 µM). Besides, the MIC in assay [7] is 0.012 µg/mL (≈ 0.0216 µM); in assay [8], 0.1 µg/mL (≈ 0.18 µM); in assay [9], 0.78 µg/mL (≈ 1.4 µM); in [10], 0.2 µg/mL (≈ 0.36 µM); in [11], 0.05 µg/mL (≈ 0.09 µM); in assay [12], 0.05 µg/mL (≈ 0.09 µM). Besides, the MIC is 0.05 µg/mL (≈ 0.09 µM) in assay [13]; 0.05 µg/mL (≈ 0.09 µM) in assay [14]; 0.39 µg/mL (≈ 0.702 µM) in assay [15]; 1.56 µg/mL (≈ 2.81 µM) in assay [16]; 1.56 µg/mL (≈ 2.81 µM) in assay [17]; at most 0.006 µg/mL in assay [18]. In addition, the MIC in assay [19] is 0.2 µg/mL (≈ 0.36 µM); in assay [20], 0.05 µg/mL (≈ 0.09 µM).
On to `CO/N=C(\C(=O)N[C@@H]1C(=O)N2C(C(=O)[O-])=C(C[n+]3ccn4ccc(CO)c4c3)CS[C@H]12)c1nc(N)sc1Cl` [Ex. 54, 7-β-[(Z)-2-(2-amino-5-chlorothiazol-4-yl)-2-methoxyiminoacetamido]-3-(8-hydroxymethylpyrrolo[1,2-a]-pyrazinium-2-yl)methyl-3-cephem-4-carboxylate], for which the MIC in assay [1] is 0.1 µg/mL (≈ 0.173 µM); in assay [2] it was 3.13 µg/mL (≈ 5.41 µM); in [3], 0.78 µg/mL (≈ 1.35 µM); in assay [4], 0.05 µg/mL (≈ 0.0865 µM); in [5] it was 6.25 µg/mL (≈ 10.8 µM); in assay [6] it was 12.5 µg/mL (≈ 21.6 µM). For the same molecule, the MIC in assay [7] was 0.05 µg/mL (≈ 0.0865 µM); in assay [8] it was 0.05 µg/mL (≈ 0.0865 µM); in [9], 0.78 µg/mL (≈ 1.35 µM); in [10], 0.39 µg/mL (≈ 0.675 µM); in [11], 0.1 µg/mL (≈ 0.173 µM); in assay [12], 0.39 µg/mL (≈ 0.675 µM). Moreover, the MIC in [13] came to 0.78 µg/mL (≈ 1.35 µM); in assay [14] it was 0.39 µg/mL (≈ 0.675 µM); in [15], 0.78 µg/mL (≈ 1.35 µM); in assay [16], 0.78 µg/mL (≈ 1.35 µM); in assay [17] it was 1.56 µg/mL (≈ 2.7 µM); in assay [18], 0.025 µg/mL (≈ 0.0433 µM). For the same molecule, the figures for the MIC in assay [19] and in assay [20] were 0.2 µg/mL (≈ 0.346 µM) and 0.025 µg/mL (≈ 0.0433 µM), respectively.
